Our source for the Ki values is US8163728B2, “Pyrazoles” (Hoffmann-La Roche Inc., priority 2009, dated 2012).

Each structure is given as a SMILES string.

The assay addresses T1, GABA A α5 (Homo sapiens, UniProt P18507+P31644).
T1 construct: expressed in transfected cells; host or cells: HEK293 cells, transiently transfected; membranes prepared from cell pellets
Briefly: [3H]flumazenil competition binding, human GABA A α5β3γ2 receptors in HEK293 cell membranes. To be noted: human receptor α5β3γ2 transiently transfected in HEK293; 0.5 nM [3H]flumazenil; 1 hour at 4° C.; means of two determinations; read-out: hKi GABA A α5. The essentials:
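Competition with [3H]flumazenil for binding to membranes of HEK293 cells transiently expressing human α5β3γ2, in Krebs-tris buffer pH 7.5. Incubated to equilibrium 1 h at 4 °C, filtered and scintillation-counted; Ki values are means of two determinations.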
For `Cc1onc(-c2ccc(F)cn2)c1CNc1cc(C(=O)NC2CCOCC2)n(C)n1` [Example 164, 3-((3-(5-Fluoropyridin-2-yl)-5-methylisoxazol-4-yl)methylamino)-1-methyl-N-(tetrahydro-2H-pyran-4-yl)-1H-pyrazole-5-carboxamide], the Ki was 11.9 nM.

For `Cc1onc(-c2ccc(F)cn2)c1CNc1cc(C(=O)NC2CC2)n(C)n1` [Example 165, N-Cyclopropyl-3-((3-(5-fluoropyridin-2-yl)-5-methylisoxazol-4-yl)methylamino)-1-methyl-1H-pyrazole-5-carboxamide], the Ki came out at 41.1 nM.

Regarding `Cc1onc(-c2ccc(F)cn2)c1CNc1cc(C(=O)NCC2CC2)n(C)n1` [Example 166, N-(Cyclopropylmethyl)-3-((3-(5-fluoropyridin-2-yl)-5-methylisoxazol-4-yl)methylamino)-1-methyl-1H-pyrazole-5-carboxamide], the Ki worked out at 55.6 nM.

For the compound `Cc1onc(-c2ccc(F)cn2)c1CNc1cc(C(=O)NC2(C)COC2)n(C)n1` [Example 167, 3-((3-(5-Fluoropyridin-2-yl)-5-methylisoxazol-4-yl)methylamino)-1-methyl-N-(3-methyloxetan-3-yl)-1H-pyrazole-5-carboxamide], the Ki was 16.2 nM.

With `Cc1onc(-c2ccc(F)cn2)c1CNc1cc(C(=O)N2CC3(COC3)C2)n(C)n1` [Example 168, (3-((3-(5-Fluoropyridin-2-yl)-5-methylisoxazol-4-yl)methylamino)-1-methyl-1H-pyrazol-5-yl)(2-oxa-6-azaspiro[3.3]heptan-6-yl)methanone], the Ki came out at 77.7 nM.
